Experimental data taken from patent US10512656B2, “Compositions and methods for the treatment of lysosomal storage disorders and disorders characterized by lysosomal dysfunction” (Baylor College of Medicine, priority 2016, dated 2019).

How the values were obtained:
[1] = test system: lysosomal and autophagy genes; experiment: Expression analysis of lysosomal and autophagy genes in HeLa cells; format: cell-based, human; conditions: HeLa cells treated with MK2206
Description: FIG. 24. […] (b) Immunoblot analysis of LC3 lipidation. […] (d) Expression analysis of lysosomal and autophagy genes in HeLa cells treated with MK2206. Gene expression was normalized relative to the housekeeping gene, GAPDH. The dashed line indicates relative gene expression in untreated cells. […] Scale bar, 10 μm (a), 50 nm (c) and 20 μm (f).
Control (Coriell Institute, USA) and JNCL fibroblasts (Gaslini Institute, Italy) were grown in DMEM (1:1, HyClone) supplemented with 10% heat-inactivated fetal bovine serum (FBS, Atlanta Biologicals), 2 mM L-glutamine, 100 U/ml penicillin and […] streptomycin (Invitrogen). […]
(§1) Total RNA was extracted from the control and JNCL fibroblasts and from WT and Cln3^Δex7-8 cortical neuron cultures using the RNEasy kit (Qiagen) according to the manufacturer's instructions. Half of the mouse brain was processed for the RNA extraction and one microgram was used for complementary DNA synthesis by QuantiTect Reverse Transcription kit (Qiagen). The primers for PCR with reverse transcription reactions are listed in Table St Quantitative real-time PCR was performed by using iQ SYBR Green Supermix on the CFX96 Touch Real-Time Detection System (Bio-Rad Laboratories). […] Relative gene expression was determined using the ΔΔCT method, normalizing to GAPDH (for human genes) and cyclophilin (for mouse genes). […]

mTORC1 [2] = biological target: T1, mTORC1 (Homo sapiens, UniProt P42345); experiment: Immunoblot of mTORC1 substrates in HeLa cells; format: cell-based; conditions: trehalose 24 h or 48 h
T1 construct: endogenous in cells; host or cells: HeLa
Description: FIG. 8. […] HeLa cells were treated with trehalose for 24 h or 48 h, or with rapamycin (600 nM, 16 h) or Torin1 (300 nM, 2 h) as controls for mTORC1 inhibition. […] GAPDH was used as a loading control.
Brain tissue and cultured cells were collected and lysed in RIPA buffer (50 mM Tris-HCl, ph 7.4, 1% NP40, 0.5% Na-deoxycholate, 0.1% SDS, 150 mM NaCl, 2 mM EDTA and 50 mM NaF) including a cocktail of protease (Roche) and phosphatase (SIGMA) inhibitors. Protein concentrations were measured with the bicinchoninic acid protein assay kit (Pierce, Rockford, Ill.), using bovine serum albumin as standard. Lysates were separated via SDS-polyacrylamide gel electrophoresis (PAGE) and then transferred to nitrocellulose membranes. Blots were incubated in blocking buffer (5%, w/v, dried skimmed milk in Tris-buffered saline, pH 7.4 and 0.2% Tween 20, TBST) followed by overnight incubation with appropriate antibodies diluted in blocking buffer (5% dry milk). Western blot images were acquired by LAS 4000 (GE Healthcare) and quantified using ImageJ. Images have been cropped for presentation.

[3] = humans, oral; cited from earlier work
GSK3β = biological target: T2, GSK3β (Homo sapiens, UniProt P49841); experiment: GSK3β immunoblot in HeLa cells; format: cell-based; conditions: trehalose 24 h
T2 construct: endogenous in cells; host or cells: HeLa
Description: FIG. 16. […] GAPDH was used as a loading control. […] Images have been cropped for presentation.

Cln3^Δex7-8 mice = experiment: Wet brain weight; format: in vivo, mouse; conditions: 12-month-old Cln3^Δex7-8 mice, trehalose treatment; untreated 0.355±0.024 g, WT 0.516±0.021 g
Description: Cln3^Δex7-8 mice (stock no. 004685; Cln3^tm1.1Mem/J; CD-1 background)^32 were obtained from the Jackson Laboratory. Control (CD-1) and Cln3^Δex7-8 mice were housed 3-4 per cage in a room with a 12-h light/12-h dark cycle. Food and water were provided ad libitum. All mice used in this study were analyzed at 8 and 12 months of age and were littermates produced by crossing heterozygous Cln3^Δex7-8 mice. Only males were used for this analysis. Investigators were blinded when analyzing the data, and no randomization was necessary. No data were excluded from this study.
Trehalose (Swanson) was dissolved in drinking water to a final concentration of 2% and changed twice a week. Trehalose-containing water was given to Cln3^Δex7-8 and WT mice by spontaneous oral administration starting at 21 days of age and continuing until the day the mice died naturally (life span assessment) or were sacrificed for other studies.

mTORC1 [4] = biological target: T3, mTORC1 (Mus musculus, UniProt Q9JLN9); experiment: Immunoblot of mTORC1 substrates in WT and Tsc2-/- MEFs; format: cell-based; conditions: Tsc2-/- and control MEFs, trehalose 100 mM 24 h
T3 construct: 100 mM) for 24 h or left untreated; endogenous in cells; host or cells: wild-type and Tsc2-/- mouse embryonic fibroblasts
Description: (b) Quantification of TFEB subcellular localization (C, cytoplasmic; N, nuclear) after 24 h of trehalose treatment (Tre) or in untreated cells (UT). Scale bars in a, b is 40 μm. (c) Immunoblot analyses show expression levels of substrates downstream of mTORC1. Wild-type (WT) and TSC2 null MEF cells were treated with trehalose (Tre; 100 mM) for 24 h or left untreated. As controls, cells were treated with Torin 1 (300 nM) or rapamycin (300 nM) for 2 h before extracting the lysates. Phospho- and total S6K1 (P-S6K1 and T-S6K1), phospho- and total S6 (P-S6 and T-S6) and phospho- and total 4E-BP1 (P-4E-BP1 and T-4E-BP1) were detected as readouts of mTORC1 activity. […]
Brain tissue and cultured cells were collected and lysed in RIPA buffer (50 mM Tris-HCl, ph 7.4, 1% NP40, 0.5% Na-deoxycholate, 0.1% SDS, 150 mM NaCl, 2 mM EDTA and 50 mM NaF) including a cocktail of protease (Roche) and phosphatase (SIGMA) inhibitors. Protein concentrations were measured with the bicinchoninic acid protein assay kit (Pierce, Rockford, Ill.), using bovine serum albumin as standard. […] Western blot images were acquired by LAS 4000 (GE Healthcare) and quantified using ImageJ. […]

CLEAR genes = experiment: Real-time qPCR of CLEAR genes in control and JNCL fibroblasts; format: cell-based, human; conditions: treated versus untreated
Description: Control (Coriell Institute, USA) and JNCL fibroblasts (Gaslini Institute, Italy) were grown in DMEM (1:1, HyClone) supplemented with 10% heat-inactivated fetal bovine serum (FBS, Atlanta Biologicals), 2 mM L-glutamine, 100 U/ml penicillin and […] streptomycin (Invitrogen). HeLa cells were incubated for 2 h with LY294002 ([…], Cell Signaling), Torin 1 (300 nM, Cayman Chemical) or for 24 h with trehalose (100 mM, Sigma), rapamycin (300 nM, Sigma), MK2206 (1 μM, Selleckchem), U0126 ([…], Tocris) and dialyzed serum (GE Healthcare Life Sciences) for 30 min.
as §1

T2 sequence (P49841 whole entry): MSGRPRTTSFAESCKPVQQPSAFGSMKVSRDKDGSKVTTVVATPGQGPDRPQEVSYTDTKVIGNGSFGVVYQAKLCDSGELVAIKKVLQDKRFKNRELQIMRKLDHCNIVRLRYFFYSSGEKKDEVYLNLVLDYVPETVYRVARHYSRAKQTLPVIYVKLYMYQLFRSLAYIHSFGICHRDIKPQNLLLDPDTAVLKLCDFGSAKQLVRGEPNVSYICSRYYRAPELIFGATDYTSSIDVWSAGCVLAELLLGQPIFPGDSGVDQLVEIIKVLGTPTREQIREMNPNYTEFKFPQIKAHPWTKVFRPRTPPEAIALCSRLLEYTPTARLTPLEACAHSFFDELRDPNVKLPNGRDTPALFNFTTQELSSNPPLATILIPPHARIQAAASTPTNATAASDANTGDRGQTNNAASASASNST

Row | SMILES | expression of lysosomal and autophagy genes [1] | phosphorylation state of mTORC1 substrates (mTORC1 [2]) | ingested trehalose absorbed into the blood stream [3] | GSK3β activity (GSK3β) | wet brain weight (Cln3^Δex7-8 mice) [g] | mTORC1 signalling (mTORC1 [4]) | expression of CLEAR genes (CLEAR genes)
1 | Cl.NC1(c2ccc(-c3nc4ccn5c(=O)[nH]nc5c4cc3-c3ccccc3)cc2)CCC1 [MK2206, 8-[4-(1-aminocyclobutyl)phenyl]-9-phenyl-1,2,4-triazolo[3,4-f][1,6]naphthyridin-3(2H)-one] | upregulated the expression of lysosomal and autophagy genes | – | – | – | – | – | –
2 | OC[C@H]1O[C@H](O[C@H]2O[C@H](CO)[C@@H](O)[C@H](O)[C@H]2O)[C@H](O)[C@@H](O)[C@@H]1O [trehalose, a-D-glucopyranosyl a-D-glucopyranoside] | – | no changes in their phosphorylation state | Less than 0.5% | no detectable effect | 0.473 ± 0.028 | does not alter mTORC1 signalling | increased expression of tested CLEAR genes
